{"source": "patent US4554271A", "about": "“Use of high doses of derivatives of 6α-methylprednisolone for the acute treatment of stroke syndrome” (The Upjohn Company, priority 1984, dated 1985)", "origin": "cited, not measured here", "key": {"[1]": {"system": "canine middle cerebral artery (MCA)", "conditions": "canine MCA embolization, embolectomy at 6 hours; DMSO 2 gm/kg"}, "lipid peroxide formation": {"system": "lipid peroxide formation", "conditions": "cat spinal cord; large intravenous doses"}, "(Na^+ +K^+)-ATPase [2]": {"system": "(Na^+ +K^+)-ATPase", "conditions": "cat spinal cord; large intravenous doses"}, "motor neuron": {"system": "motor neuron", "conditions": "cat; large intravenous doses"}, "[3]": {"system": "cardiac, renal, and hepatic ischemia", "conditions": "in vivo"}, "[4]": {"system": "cyclic guanosine 3',5'-monophosphate (cyclic GMP)", "conditions": "cat"}, "[5]": {"system": "spinal cord-injured animals", "conditions": "comparable doses (15 to 30 mg/kg) soon after injury; other studies"}, "cerebral ischemia": {"system": "cerebral ischemia", "conditions": "anesthetized gerbil; 35 mg/kg; bilateral occlusion of the carotid arteries"}, "(Na^+ +K^+)-ATPase [6]": {"system": "(Na^+ +K^+)-ATPase", "conditions": "for (Na^+ +K^+)-ATPase activity in the injured cord: cat"}, "[7]": {"system": "adenylate cyclase systems"}, "[8]": {"conditions": "single 30-mg/kg dose"}, "[9]": {"system": "ischemia-induced neurological deficits", "conditions": "gerbils; title of cited paper"}, "[10]": {"conditions": "15- or 30-mg/kg intravenous dose given 30 minutes after trauma, earlier studies"}}, "note": "Counter-ions that a name gives are not always drawn. Like-named read-outs stand apart in the source and are kept apart here.", "data": [{"smiles": "C[S+](C)[O-]", "note": "[DMSO, dimethyl sulfoxide]", "values": [{"measurement": "infarction of the brain", "setting": "[1]", "result": "no infarction"}]}, {"smiles": "C[C@H]1C[C@@H]2[C@H]([C@@H](O)C[C@@]3(C)[C@H]2CC[C@]3(O)C(=O)COC(=O)CCC(=O)O)[C@@]2(C)C=CC(=O)C=C12", "note": "[methylprednisolone sodium succinate, 1-dehydro-6α-methylhydrocortisone 21-hemisuccinate sodium salt]", "values": [{"measurement": "lipid peroxide formation", "setting": "lipid peroxide formation", "result": "attenuation"}, {"measurement": "spinal cord (Na^+ +K^+)-ATPase activity", "setting": "(Na^+ +K^+)-ATPase [2]", "result": "enhancement"}, {"measurement": "impulse conduction along the myelinated portion of the motor axon", "setting": "motor neuron", "result": "accelerated"}, {"measurement": "motor neuron resting membrane potentials", "setting": "motor neuron", "result": "hyperpolarization"}]}, {"smiles": "C[C@H]1C[C@@H]2[C@H]([C@@H](O)C[C@@]3(C)[C@H]2CC[C@]3(O)C(=O)CO)[C@@]2(C)C=CC(=O)C=C12", "note": "[methylprednisolone, 1-Dehydro-6α-methylhydrocortisone]", "values": [{"measurement": "relieving cardiac, renal, and hepatic ischemia", "setting": "[3]", "result": "effective"}, {"measurement": "injury-induced increase in cyclic GMP content in spinal segment", "setting": "[4]; 15 or 30 mg/kg i.v. at 30 minutes after injury, read at 1 hour", "result": "completely prevented"}, {"measurement": "elevation in cyclic GMP", "setting": "[4]; 60-mg/kg dose", "result": "did not prevent"}, {"measurement": "recovery and tissue preservation in spinal cord-injured animals", "setting": "[5]", "result": "significantly greater"}, {"measurement": "lipid peroxidation at 1 hour after injury", "setting": "lipid peroxidation; [10]", "result": "significantly reduce"}, {"measurement": "injury-induced increase in fluorescence (lipid peroxy products) in spinal segment", "setting": "lipid peroxidation; cat, 15 or 30 mg/kg i.v. at 30 minutes after injury, read at 1 hour", "result": "completely prevented"}, {"measurement": "duration of its pharmacological actions", "setting": "cat, single intravenous administration", "result": "roughly 3 hours"}, {"measurement": "spinal cord tissue levels of methylprednisolone at which each of the effects is apparent", "setting": "cat, single intravenous dose of 30 mg/kg", "result": "around 1.3 μg/gm wet weights"}, {"measurement": "half-life in cat spinal cord", "setting": "single intravenous administration, 30 mg/kg", "result": "roughly 3 hours"}, {"measurement": "survival after cerebral ischemia", "setting": "cerebral ischemia", "result": "improved survival"}, {"measurement": "(Na^+ +K^+)-ATPase activity at 1 hour after injury", "setting": "(Na^+ +K^+)-ATPase [6]; [10]", "result": "enhance"}, {"measurement": "(Na^+ +K^+)-ATPase activity in the injured cord", "setting": "(Na^+ +K^+)-ATPase [6]; 30-mg/kg dose", "result": "striking increase"}, {"measurement": "(Na^+ +K^+)-ATPase activity in the injured cord", "setting": "(Na^+ +K^+)-ATPase [6]; 60-mg/kg dose", "result": "depression in activity"}, {"measurement": "damaging effect (adenylate cyclase systems) of 60 minutes occlusion plus 15 minutes recirculation", "setting": "[7]; barbiturate-anesthetized gerbils, pretreatment 30 mg/kg, 30 min. prior to carotid ligation", "result": "prevented"}, {"measurement": "chronic (7 days) enzyme damage elicited by 15 minutes of bilateral stroke", "setting": "[7]; gerbils, preliminary work", "result": "prevented"}, {"measurement": "harmful effects", "setting": "[8]", "result": "virtually without harmful effects"}]}, {"smiles": "C=CCN1CC[C@]23c4c5ccc(O)c4O[C@H]2C(=O)CC[C@@]3(O)[C@H]1C5", "note": "[naloxone]", "values": [{"measurement": "reversal of ischemia-induced neurological deficits", "setting": "[9]", "result": "Failure"}]}]}
